The source of these data is patent US20050142581A1, “Microrna as ligands and target molecules” (priority 2003, published 2005).

Oligonucleotides are written 5' to 3', each unit as a sugar letter and its base; * is a phosphorothioate linkage, no mark a phosphodiester; rarer units and linkages stand in square brackets, end groups in braces. Plain capitals give the bases only. e = 2'-O-(2-methoxyethyl) (MOE); [5mC] = 5-methylcytosine; d = 2'-deoxy (DNA)

The first data set deals with human CD40 mRNA. Nature of the data set: Inhibition of CD40 mRNA levels by oligonucleotides (real-time RT-PCR). Format: cell-based. Further details: concentration or dose not given beside the values. The conditions noted are these: 2'-MOE gapmers, 18 nucleotides, phosphorothioate throughout; averaged from three experiments. Here is the method: When cells reach about 80% confluency, they are treated with oligonucleotide. For cells grown in 96-well plates, wells are washed once with 200 μl Opti-MEM-1 reduced-serum medium (Life Technologies) and then treated with 130 μl of Opti-MEM-1 containing 3.75 μg/ml LIPOFECTIN (Life Technologies) and the desired oligonucleotide at a final concentration of 150 nM. After 4 hours of treatment, the medium was replaced with fresh medium. Cells were harvested 16 hours after oligonucleotide treatment.
Poly(A)+ mRNA was isolated according to Miura et al. (Clin. Chem., 1996, 42, 1758). Briefly, for cells grown on 96-well plates, growth medium was removed from the cells and each well was washed with 200 ul cold PBS. 60 ul lysis buffer (10 mM Tris-HCl, pH 7.6, 1 mM EDTA, 0.5 M NaCl, 0.5% NP-40, 20 mM vanadyl-ribonucleoside complex) was added to each well, the plate was gently agitated and then incubated at room temperature for five minutes. 55 ul of lysate was transferred to Oligo d(T) coated 96 well plates (AGCT Inc., Irvine, Calif.). Plates were incubated for 60 minutes at room temperature, washed 3 times with 200 ul of wash buffer (10 mM Tris-HCl pH 7.6, 1 mM EDTA, 0.3 M NaCl). After the final wash, the plate was blotted on paper towels to remove excess wash buffer and then air-dried for 5 minutes. 60 ul of elution buffer (5 mM Tris-HCl pH 7.6), preheated to 70° C. was added to each well, the plate was incubated on a 90° hot plate for 5 minutes, and the eluate then transferred to a fresh 96 well plate. Cells grown on 100 mm or other standard plates may be treated similarly, using appropriate volumes of all solutions.
Quantitation of CD40 mRNA levels was determined by real-time PCR (RT-PCR) using the ABI PRISM 7700 Sequence Detection System (PE-Applied Biosystems, Foster City, Calif.) according to manufacturer's instructions. This is a closed-tube, non-gel-based, fluorescence detection system which allows high-throughput quantitation of polymerase chain reaction (PCR) products in real-time.
As opposed to standard PCR, in which amplification products are quantitated after the PCR is completed, products in RT-PCR are quantitated as they accumulate. This is accomplished by including in the PCR reaction an oligonucleotide probe that anneals specifically between the forward and reverse PCR primers, and contains two fluorescent dyes. A reporter dye (e.g., JOE or FAM, PE-Applied Biosystems, Foster City, Calif.) is attached to the 5′ end of the probe and a quencher dye (e.g., TAMRA, PE-Applied Biosystems, Foster City, Calif.) is attached to the 3′ end of the probe. When the probe and dyes are intact, reporter dye emission is quenched by the proximity of the 3′ quencher dye. During amplification, annealing of the probe to the target sequence creates a substrate that can be cleaved by the 5′-exonuclease activity of Taq polymerase.
With each cycle, additional reporter dye molecules are cleaved from their respective probes, and the fluorescence intensity is monitored at regular (six-second) intervals by laser optics built into the ABI PRISM 7700 Sequence Detection System. In each assay, a series of parallel reactions containing serial dilutions of mRNA from untreated control samples generates a standard curve that is used to quantitate the percent inhibition after antisense oligonucleotide treatment of test samples.
RT-PCR reagents were obtained from PE-Applied Biosystems, Foster City, Calif. RT-PCR reactions were carried out by adding 25 ul PCR cocktail (1× Taqman buffer A, 5.5 mM MgCl2, 300 uM each of dATP, dCTP and dGTP, 600 uM of dUTP, 100 nM each of forward primer, reverse primer, and probe, 20 U RNAse inhibitor, 1.25 units AmpliTaq Gold, and 12.5 U MuLV reverse transcriptase) to 96 well plates containing 25 ul poly(A) mRNA solution. […]
As for “19255 (antisense eG*eT*eA*eT*dC*dA*dG*dA*dA*dA*dC*dC*dC*dC*eT*eG*eT*eA) [compound 19255]”, the “% Inhibition (Inhibition of CD40 mRNA Levels by Chimeric Phosphorothioate Oligonucleotides)” value (shortened to “% Inhibition”) came to 36.13%.
For the substance “19232 (antisense e[5mC]*eA*eG*eT*dG*dA*dA*dC*dT*dC*dT*dG*dT*dG*e[5mC]*eA*eG*eT) [compound 19232]”, the “% Inhibition” value turned out to be 40.26%.
The same measure, in the same setting: the figure for “19291 (eG*eG*eT*eG*dC*dA*dG*dC*dC*dT*dC*dA*dC*dT*eG*eT*e[5mC]*eT; antisense) [compound 19291]” is 76.27%.
Take “19226 (antisense eT*e[5mC]*e[5mC]*eT*dG*dG*dC*dT*dG*dG*dC*dA*dC*dA*eA*eA*eG*eA) [compound 19226]”: the “% Inhibition” value is recorded as 10.18%.
In the case of “19244 (antisense eT*eG*eG*eT*dG*dT*dC*dT*dG*dT*dT*dT*dC*dT*eG*eA*eG*eG) [compound 19244]”, the “% Inhibition” value worked out at 42.83%.
Same read-out and setting: the figure for “19231 (antisense eA*e[5mC]*eT*e[5mC]*dT*dG*dT*dG*dC*dA*dG*dT*dC*dA*e[5mC]*eT*e[5mC]*eA) [compound 19231]” is 37.59%.
As for “19235 (antisense eT*eT*e[5mC]*eA*dC*dC*dG*dC*dA*dA*dG*dG*dA*dA*eG*eG*e[5mC]*eA) [compound 19235]”, the “% Inhibition” value came to 61.03%.
Consider “19248 (antisense eT*eA*e[5mC]*eA*dG*dT*dG*dC*dC*dA*dG*dC*dC*dT*eT*e[5mC]*eT*eT) [compound 19248]”, for which the “% Inhibition” value worked out at 46.82%.
Regarding “19224 (antisense e[5mC]*eA*e[5mC]*eA*dA*dA*dG*dA*dA*dC*dA*dG*dC*dA*e[5mC]*eT*eG*eA) [compound 19224]”, the “% Inhibition” value came to 40.25%.
Turning to “19217 (DNA eG*eG*eT*e[5mC]*dA*dG*dC*dA*dA*dG*dC*dA*dG*dC*e[5mC]*e[5mC]*e[5mC]*eA; antisense) [compound 19217]”, the “% Inhibition” value was 74.73%.
As for “19276 (eG*eA*eG*eG*dA*dT*dG*dG*dC*dA*dA*dA*dC*dA*eG*eG*eA*eT; antisense) [compound 19276]”, the “% Inhibition” value came to 49.14%.
As to “19283 (eG*eG*eA*eG*dC*dC*dA*dG*dG*dA*dA*dG*dA*dT*e[5mC]*eG*eT*e[5mC]; antisense) [compound 19283]”, the “% Inhibition” value is listed as 69.47%.
“19262 (eG*e[5mC]*eA*eG*dA*dT*dG*dA*dC*dA*dC*dA*dT*dT*eG*eG*eA*eG; antisense) [compound 19262]”: the “% Inhibition” value turned out to be 78.48%.

The same data set, now with this note: oligodeoxynucleotides with phosphorothioate backbones throughout; averages from three experiments.
As to “18636 (DNA dC*dA*dC*dA*dA*dA*dG*dA*dA*dC*dA*dG*dC*dA*dC*dT*dG*dA; antisense) [compound 18636]”, the “% INHIB. (Inhibition of CD40 mRNA Levels by Phosphorothioate Oligodeoxynucleotides)” value came out at 0.00%.
As for “18662 (DNA dT*dG*dC*dA*dG*dG*dA*dC*dA*dC*dA*dG*dC*dT*dC*dT*dC*dA; antisense) [compound 18662]”, the “% INHIB. (Inhibition of CD40 mRNA Levels by Phosphorothioate Oligodeoxynucleotides)” value was 0.00%.
As for “18623 (DNA dC*dC*dA*dG*dG*dC*dG*dG*dC*dA*dG*dG*dA*dC*dC*dA*dC*dT; antisense) [compound 18623]”, the “% INHIB. (Inhibition of CD40 mRNA Levels by Phosphorothioate Oligodeoxynucleotides)” value turned out to be 30.71%.
With “18654 (DNA dC*dT*dG*dA*dG*dG*dT*dG*dC*dC*dC*dT*dT*dC*dT*dG*dC*dT; antisense) [compound 18654]”, the “% INHIB. (Inhibition of CD40 mRNA Levels by Phosphorothioate Oligodeoxynucleotides)” value is listed as 15.63%.
For “18658 (DNA dT*dT*dC*dA*dC*dA*dG*dG*dT*dG*dC*dA*dG*dA*dT*dG*dG*dT; antisense) [compound 18658]”, the “% INHIB. (Inhibition of CD40 mRNA Levels by Phosphorothioate Oligodeoxynucleotides)” value amounted to 0.00%.
Consider “18670 (DNA dT*dG*dG*dG*dC*dA*dG*dG*dG*dC*dT*dC*dG*dC*dA*dG*dA*dT; antisense) [compound 18670]”, for which the “% INHIB. (Inhibition of CD40 mRNA Levels by Phosphorothioate Oligodeoxynucleotides)” value was found to be 0.00%.
Turning to “18627 (DNA dG*dC*dA*dG*dA*dG*dG*dC*dA*dG*dA*dC*dG*dA*dA*dC*dC*dA; antisense) [compound 18627]”, the “% INHIB. (Inhibition of CD40 mRNA Levels by Phosphorothioate Oligodeoxynucleotides)” value is 0.00%.
On to “18637 (DNA dC*dT*dG*dG*dC*dA*dC*dA*dA*dA*dG*dA*dA*dC*dA*dG*dC*dA; antisense) [compound 18637]”, for which the “% INHIB. (Inhibition of CD40 mRNA Levels by Phosphorothioate Oligodeoxynucleotides)” value stood at 0.00%.
The same measure, in the same setting: the figure for “18644 (DNA dC*dA*dG*dT*dG*dA*dA*dC*dT*dC*dT*dG*dT*dG*dC*dA*dG*dT; antisense) [compound 18644]” is 5.30%.
For “18651 (DNA dG*dG*dT*dT*dG*dG*dG*dG*dT*dC*dG*dC*dA*dG*dT*dA*dT*dT; antisense) [compound 18651]”, the “% INHIB. (Inhibition of CD40 mRNA Levels by Phosphorothioate Oligodeoxynucleotides)” value came out at 0.00%.
As for “18661 (DNA dG*dG*dA*dC*dA*dC*dA*dG*dC*dT*dC*dT*dC*dA*dC*dA*dG*dG; antisense) [compound 18661]”, the “% INHIB. (Inhibition of CD40 mRNA Levels by Phosphorothioate Oligodeoxynucleotides)” value is listed as 0.00%.
For “18701 (DNA dC*dT*dC*dT*dT*dT*dG*dC*dC*dA*dT*dC*dC*dT*dC*dC*dT*dG; antisense) [compound 18701]”, the “% INHIB. (Inhibition of CD40 mRNA Levels by Phosphorothioate Oligodeoxynucleotides)” value was found to be 4.38%.
On the same count and under the same terms, the figure for “18692 (DNA dG*dG*dG*dT*dT*dC*dC*dT*dG*dC*dT*dT*dG*dG*dG*dG*dT*dG; antisense) [compound 18692]” is 0.00%.
“18650 (DNA dT*dG*dG*dG*dG*dT*dC*dG*dC*dA*dG*dT*dA*dT*dT*dT*dG*dT; antisense) [compound 18650]”: the “% INHIB. (Inhibition of CD40 mRNA Levels by Phosphorothioate Oligodeoxynucleotides)” value is 0.00%.
Take “18664 (DNA dA*dA*dG*dC*dC*dG*dG*dG*dC*dG*dA*dG*dC*dA*dT*dG*dA*dG; antisense) [compound 18664]”: the “% INHIB. (Inhibition of CD40 mRNA Levels by Phosphorothioate Oligodeoxynucleotides)” value is recorded as 0.00%.
As for “18697 (DNA dT*dG*dG*dA*dG*dC*dA*dG*dC*dA*dG*dT*dG*dT*dT*dG*dG*dA; antisense) [compound 18697]”, the “% INHIB. (Inhibition of CD40 mRNA Levels by Phosphorothioate Oligodeoxynucleotides)” value came to 0.00%.
For “18685 (DNA dT*dC*dA*dG*dC*dC*dG*dA*dT*dC*dC*dT*dG*dG*dG*dG*dA*dC; antisense) [compound 18685]”, the “% INHIB. (Inhibition of CD40 mRNA Levels by Phosphorothioate Oligodeoxynucleotides)” value is reported as 0.00%.
For “18668 (DNA dG*dC*dT*dC*dG*dC*dA*dG*dA*dT*dG*dG*dT*dA*dT*dC*dA*dG; antisense) [compound 18668]”, the “% INHIB. (Inhibition of CD40 mRNA Levels by Phosphorothioate Oligodeoxynucleotides)” value amounted to 0.00%.
Turning to “18691 (DNA dT*dA*dT*dT*dG*dG*dT*dT*dG*dG*dC*dT*dT*dC*dT*dT*dG*dG; antisense) [compound 18691]”, the “% INHIB. (Inhibition of CD40 mRNA Levels by Phosphorothioate Oligodeoxynucleotides)” value worked out at 0.00%.
Turning to “18700 (DNA dC*dG*dG*dT*dT*dG*dG*dC*dA*dT*dC*dC*dA*dT*dG*dT*dA*dA; antisense) [compound 18700]”, the “% INHIB. (Inhibition of CD40 mRNA Levels by Phosphorothioate Oligodeoxynucleotides)” value turned out to be 0.00%.
Turning to “18646 (DNA dG*dA*dA*dG*dG*dC*dA*dT*dT*dC*dC*dG*dT*dT*dT*dC*dA*dG; antisense) [compound 18646]”, the “% INHIB. (Inhibition of CD40 mRNA Levels by Phosphorothioate Oligodeoxynucleotides)” value is 9.00%.
The same measure, in the same setting: the figure for “18635 (DNA dG*dC*dA*dG*dT*dG*dG*dG*dT*dG*dG*dT*dT*dC*dT*dG*dG*dA; antisense) [compound 18635]” is 0.00%.
